The text below walks through data of patent US10538512B2, “Aminoacylindazole immunomodulators for treatment of autoimmune diseases” (The Rockefeller University, priority 2016, dated 2020).

The target of one test is T1, Human alpha-thrombin (Homo sapiens, UniProt P00734).
T1 construct: Human alpha-thrombin (Enzyme Research Labs); purchased Enzyme Research Labs
Kind of test: Thrombin counterscreen for selectivity, fluorogenic substrate assay. It is filed as biochemical. The settings on record: Human alpha-thrombin 12.5 nM, Boc-Val-Pro-Arg-AMC 20 μM, 10 min preincubation. The gist of the method:
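Compounds, about 1–100 μM, preincubated 10 min at room temperature with enzyme, then Boc-Val-Pro-Arg-AMC added at 20 μM final.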

Another test addresses T2, Human FXIIa (Homo sapiens, UniProt P00748).
T2 construct: active coagulation factor XII (FXIIa); purchased Enzyme Research Labs
T2 sequence (P00748 373-615 limits assumed): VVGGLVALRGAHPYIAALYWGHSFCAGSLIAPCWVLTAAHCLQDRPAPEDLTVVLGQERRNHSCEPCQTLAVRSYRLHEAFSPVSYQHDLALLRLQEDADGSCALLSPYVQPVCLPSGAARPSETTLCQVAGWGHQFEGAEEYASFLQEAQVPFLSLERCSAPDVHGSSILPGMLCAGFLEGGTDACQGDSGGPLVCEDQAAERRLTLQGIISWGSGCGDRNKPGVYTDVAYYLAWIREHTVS
T2 sequence (P00748 20-372 partner limits assumed): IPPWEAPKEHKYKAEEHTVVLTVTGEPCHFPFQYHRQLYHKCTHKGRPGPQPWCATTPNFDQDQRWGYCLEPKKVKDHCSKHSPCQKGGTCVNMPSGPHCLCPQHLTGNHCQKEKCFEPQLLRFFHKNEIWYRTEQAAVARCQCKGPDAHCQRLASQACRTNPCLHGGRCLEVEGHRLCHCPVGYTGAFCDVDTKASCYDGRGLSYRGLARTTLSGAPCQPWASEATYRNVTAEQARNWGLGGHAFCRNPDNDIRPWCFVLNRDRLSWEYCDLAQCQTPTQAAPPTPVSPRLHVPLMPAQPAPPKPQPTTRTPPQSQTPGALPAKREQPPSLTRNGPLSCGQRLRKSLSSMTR
Kind of test: Factor XIIa (FXIIa) inhibitory activity, chromogenic substrate assay. It is filed as biochemical. The following applies: Human FXIIa 12.5 nM, Pefachrome XIIa 400 μM, 10 min preincubation. The gist of the method:
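Buffer was 0.5× HBSS with 25 mM HEPES pH 7.4 and 0.5× TBS-Tween 0.05%. Enzyme and compound (about 1–100 μM) were preincubated 10 min at room temperature, then Pefachrome XIIa was added at 400 μM final. Substrate cleavage was followed as the rate of A405 change at 37 °C.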

As usually defined, the pIC50 is the IC50 on a negative log10 scale, so that one unit is a factor of ten. A high value points to a low IC50.

pIC50: −log10 of the molar value. Where only a bound is given, the exact number is not on record here.

As to `CO[C@H]1CCc2nn(C(=O)[C@H]3CCNc4ccc(F)cc43)c(N)c2C1` (single isomer, unassigned) [Example 177, ((5S*)-3-amino-5-methoxy-4,5,6,7-tetrahydroindazol-2-yl)((4S*)-6-fluoro-1,2,3,4-tetrahydroquinolin-4-yl)methanone], the pIC50 against Human alpha-thrombin is < 4.00; at Human FXIIa it was 5.70.

For the compound `CO[C@@H]1CCc2nn(C(=O)[C@@H]3CCNc4ccc(F)cc43)c(N)c2C1` (single isomer, unassigned) [Example 180, ((5R*)-3-amino-5-methoxy-4,5,6,7-tetrahydroindazol-2-yl)((4R*)-6-fluoro-1,2,3,4-tetrahydroquinolin-4-yl)methanone], the pIC50 was < 4.10 against Human alpha-thrombin and 7.05 against Human FXIIa.

With `Nc1c2c(nn1C(=O)[C@H]1CCNc3ccc(F)cc31)C[C@@H](O)CC2` (single isomer, unassigned) [Example 183, ((6S*)-3-amino-6-hydroxy-4,5,6,7-tetrahydroindazol-2-yl)((4S*)-6-fluoro-1,2,3,4-tetrahydroquinolin-4-yl)methanone], the values for the negative-log IC50 (pIC50) against Human alpha-thrombin and on Human FXIIa were < 4.00 and 6.22, respectively.

In the case of `Nc1c2c(nn1C(=O)[C@H]1CCNc3ccc(F)cc31)C[C@H](O)CC2` (single isomer, unassigned) [Example 185, ((6R*)-3-amino-6-hydroxy-4,5,6,7-tetrahydroindazol-2-yl)((4S*)-6-fluoro-1,2,3,4-tetrahydroquinolin-4-yl)methanone], the pIC50 on Human alpha-thrombin was < 4.00; at Human FXIIa, 7.15.

As to `Nc1c2c(nn1C(=O)C1CCNc3ccc(F)cc31)CCC(NC(=O)OCc1ccccc1)C2` (single isomer, unassigned) [Example 190, Benzyl N-[(5S*)-3-amino-2-[(6-fluoro-1,2,3,4-tetrahydroquinolin-4-yl)carbonyl]-4,5,6,7-tetrahydro-2H-indazol-5-yl]carbamate], the negative logarithm of the IC50 (pIC50) is < 4.22 against Human alpha-thrombin and 6.40 on Human FXIIa.

For the compound `Cc1cccc2c1NCC[C@H]2C(=O)n1nc2c(c1N)CC[C@H](O)C2` (single isomer, unassigned) [Example 197, ((6S*)-3-amino-6-hydroxy-4,5,6,7-tetrahydroindazol-2-yl)((4R*)-8-methyl-1,2,3,4-tetrahydroquinolin-4-yl)methanone], the pIC50 against Human alpha-thrombin is < 3.82; on Human FXIIa, 5.82.

As for `Cc1cccc2c1NCC[C@@H]2C(=O)n1nc2c(c1N)CC[C@H](O)C2` (single isomer, unassigned) [Example 198, ((6S*)-3-amino-6-hydroxy-4,5,6,7-tetrahydroindazol-2-yl)((4S*)-8-methyl-1,2,3,4-tetrahydroquinolin-4-yl)methanone], the values for the negative logarithm of the IC50 (pIC50) against Human alpha-thrombin and against Human FXIIa were < 4.00 and 7.00, respectively.

For `Nc1c2c(nn1C(=O)[C@H]1CCNc3c(Cl)cccc31)C[C@H](O)CC2` (single isomer, unassigned) [Example 209, ((6R*)-3-amino-6-hydroxy-4,5,6,7-tetrahydroindazol-2-yl)((4S*)-8-chloro-1,2,3,4-tetrahydroquinolin-4-yl)methanone], the pIC50 at Human alpha-thrombin was < 4.00; at Human FXIIa, 7.40.

For the compound `Nc1c2c(nn1C(=O)[C@@H]1CCNc3c(Cl)cccc31)C[C@H](O)CC2` (single isomer, unassigned) [Example 210, ((6R*)-3-amino-6-hydroxy-4,5,6,7-tetrahydroindazol-2-yl)((4R*)-8-chloro-1,2,3,4-tetrahydroquinolin-4-yl)methanone], the values for the pIC50 on Human alpha-thrombin and on Human FXIIa were < 4.00 and 5.48, respectively.

For the compound `Cc1cccc2c1NCC[C@@H]2C(=O)n1nc2c(c1N)C[C@H](O)CC2` (single isomer, unassigned) [Example 218, ((5R*)-3-amino-5-hydroxy-4,5,6,7-tetrahydro-2H-indazol-2-yl)((4S*)-8-methyl-1,2,3,4-tetrahydroquinolin-4-yl)methanone], the pIC50 against Human alpha-thrombin was < 4.05; at Human FXIIa, 7.30.

Take `Nc1c2c(nn1C(=O)[C@H]1CCNc3ccc(F)cc31)CC[C@H](N)C2` (stereo in doubt) [Example 192, ((5S*)-3,5-diamino-4,5,6,7-tetrahydroindazol-2-yl)((4S*)-6-fluoro-1,2,3,4-tetrahydroquinolin-4-yl)methanone]: the negative-log IC50 (pIC50) against Human alpha-thrombin was < 4.05; against Human FXIIa it was 7.10.

As to `Cc1cc2c(C(=O)N3N=C(N)C4CCCCC43)cccc2[nH]1` (stereo not shown) [Example 10, (3-amino-3a,4,5,6,7,7a-hexahydroindazol-1-yl)(2-methyl-1H-indol-4-yl)methanone], the pIC50 at Human alpha-thrombin is < 4.00; at Human FXIIa, 4.05.

In the case of `O=C(Nc1[nH]nc2c1CCCC2)C1OCCc2ccccc21` (stereo not shown) [Example 14, N-(4,5,6,7-tetrahydro-2H-indazol-3-yl)isochroman-1-carboxamide], the pIC50 against Human alpha-thrombin and against Human FXIIa was < 5.00 throughout.

Turning to `Cc1cc2c(C(=O)n3nc4c(c3N)CCCC4)cccc2n1C` [Example 22, (3-Amino-4,5,6,7-tetrahydroindazol-2-yl)(1,2-dimethyl-1H-indol-4-yl)methanone], the negative logarithm of the IC50 (pIC50) was 4.70 against Human alpha-thrombin and 7.40 against Human FXIIa.

Turning to `O=C(c1cccc2[nH]ccc12)n1cc2c(n1)CCCC2` [Example 27, (1H-indol-4-yl)(4,5,6,7-tetrahydroindazol-2-yl)methanone], the negative logarithm of the IC50 (pIC50) on Human alpha-thrombin is 5.22; against Human FXIIa, 6.40.

Consider `CCn1ccc2c(C(=O)n3nc4c(c3N)CCCC4)cccc21` [Example 28, (3-amino-4,5,6,7-tetrahydroindazol-2-yl)(1-ethyl-1H-indol-4-yl)methanone], for which the pIC50 is 4.44 against Human alpha-thrombin and 7.22 at Human FXIIa.

As to `CC(C)n1ccc2c(C(=O)n3nc4c(c3N)CCCC4)cccc21` [Example 29, (3-amino-4,5,6,7-tetrahydroindazol-2-yl)(1-isopropyl-1H-indol-4-yl)methanone], the values for the pIC50 at Human alpha-thrombin and against Human FXIIa were < 4.30 and 6.82, respectively.

Turning to `Nc1c2c(nn1C(=O)c1cccc3c1ccn3Cc1ccccc1)CCCC2` [Example 30, (3-amino-4,5,6,7-tetrahydroindazol-2-yl)(1-benzyl-1H-indol-4-yl)methanone], the negative logarithm of the IC50 (pIC50) was < 4.15 on Human alpha-thrombin and 5.30 against Human FXIIa.

As for `CC(C)(C)c1cccc(C(=O)n2nc3c(c2N)CCCC3)c1` [Example 31, (3-amino-4,5,6,7-tetrahydroindazol-2-yl)(3-tert-butylphenyl)methanone], the pIC50 is < 4.30 on Human alpha-thrombin and 6.82 at Human FXIIa.

`Nc1c2c(nn1C(=O)c1csc3ccccc13)CCCC2` [Example 32, (3-amino-4,5,6,7-tetrahydroindazol-2-yl)(benzo[b]thiophen-3-yl)methanone]: the pIC50 on Human alpha-thrombin was < 4.30; against Human FXIIa, 6.82.

`Cc1csc(C)c1C(=O)n1cc2c(n1)CCCC2` [Example 35, 2-[(2,4-dimethylthiophen-3-yl)carbonyl]-4,5,6,7-tetrahydro-2H-indazole]: the pIC50 on Human alpha-thrombin and at Human FXIIa was < 4.00 each time.

For the compound `CCCn1ccc2c(C(=O)n3nc4c(c3N)CCCC4)cccc21` [Example 36, (3-amino-4,5,6,7-tetrahydroindazol-2-yl)(1-propyl-1H-indol-4-yl)methanone], the negative-log IC50 (pIC50) against Human alpha-thrombin is < 4.10; at Human FXIIa, 6.70.

For the compound `CCC(C)n1ccc2c(C(=O)n3nc4c(c3N)CCCC4)cccc21` (stereo not shown) [Example 37, (3-amino-4,5,6,7-tetrahydroindazol-2-yl)(1-sec-butyl-1H-indol-4-yl)methanone], the negative-log IC50 (pIC50) against Human alpha-thrombin was < 4.12; at Human FXIIa, 5.60.
